Assay results published in patent US9260382B2, “Methods of reducing virulence in bacteria” (priority 2010, dated 2016).

Tested on: Pseudomonas syringae pv. tomato DC3000
Assay: Virulence assay in tomato plants (bacterial speck)
Format: in vivo
Settings: five days post-inoculation; for bacterial speck lesions on tomato plants, in words: DC3000 with 250 μM
Experimental: Virulence assays were performed in 4-5 week old tomato plants. Bacterial cell suspensions were adjusted to 6×10^5 cells/ml in dH2O with 0.02% Silwet L-77 (Lehle Seeds, Round Rock, Tex.). Lycopersicon esculentum cv. Moneymaker plants were dip-inoculated into negative control solution (dH2O with 0.02% Silwet L-77 and DMSO), positive control solution (DC3000 in dH2O with 0.02% Silwet L-77 and DMSO), or with a chemical treatment solution (DC3000 in dH2O with 0.02% Silwet L-77 and 250 μM TCA). Leaves were air-dried and plants were covered with a plastic dome and returned to the growth chamber. Plants were scored for disease symptoms using a modified scoring system (Kozik and Nowakowska 2010) five days post-inoculation. Lesions of bacterial speck on tomato were counted and the plants were scored using the following DSI scale: 0=no lesions per plant, 1=1-10 lesions, 2=11-20 lesions, 3=21-40 lesions, 4=>40 lesions.
The effects of TCA on virulence in tomato plants were examined. Lycopersicon esculentum cv. Moneymaker plants were dip-inoculated with a negative control treatment (dH2O with 0.02% Silwet L-77 and DMSO), a positive control treatment (DC3000 in dH2O with 0.02% Silwet L-77 and DMSO), or with a chemical treatment (DC3000 in dH2O with 0.02% Silwet L-77 and 250 μM TCA) as described in the methods. The lesions of bacterial speck on leaves per plant were counted and plants were classified with a disease severity index (DSI) as described in the methods. […] Plants treated with DC3000 were all scored with a DSI of four (FIG. 36B).

## O=C(O)/C=C/c1ccccc1 [Compound 001, trans-cinnamic acid]
Tomato Lycopersicon esculentum cv. Moneymaker dip-inoculated with DC3000 and 250 μM
  disease severity index (DSI): zero
  bacterial speck lesions on tomato plants, in words: No lesions of bacterial speck were observed
Listed as TCA
  bacterial speck lesions on tomato plants, in words: no bacterial speck lesions were observed
